Biological target: T1, Menin MLL 4-43 (Homo sapiens, UniProt O00255)
T1 sequence (O00255 1-610): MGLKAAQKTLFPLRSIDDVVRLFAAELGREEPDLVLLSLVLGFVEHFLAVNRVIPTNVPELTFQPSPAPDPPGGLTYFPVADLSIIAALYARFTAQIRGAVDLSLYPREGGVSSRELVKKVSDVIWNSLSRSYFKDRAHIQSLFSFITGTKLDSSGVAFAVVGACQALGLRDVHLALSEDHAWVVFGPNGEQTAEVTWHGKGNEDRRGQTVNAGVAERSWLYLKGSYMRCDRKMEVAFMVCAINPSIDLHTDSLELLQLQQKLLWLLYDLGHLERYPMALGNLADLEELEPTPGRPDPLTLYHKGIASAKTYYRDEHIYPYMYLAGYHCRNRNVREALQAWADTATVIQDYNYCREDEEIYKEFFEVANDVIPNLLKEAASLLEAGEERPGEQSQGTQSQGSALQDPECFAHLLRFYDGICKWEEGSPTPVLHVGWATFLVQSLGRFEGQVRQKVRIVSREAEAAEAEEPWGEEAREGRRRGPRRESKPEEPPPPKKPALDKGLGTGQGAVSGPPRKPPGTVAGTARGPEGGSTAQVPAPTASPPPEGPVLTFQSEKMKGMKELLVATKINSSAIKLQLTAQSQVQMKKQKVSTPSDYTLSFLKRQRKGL
Test: Fluorescence polarization (FP) competition assay of the menin-MLL interaction
Assay type: binding
Settings: fluorescence polarization competition with fluorescein-labeled MLL peptide
Excerpt: This example illustrates an assay effective in monitoring the binding of MLL to menin. […] A fluorescein-labeled peptide containing the high affinity menin binding motif found in MLL was produced according to Yokoyama et al. (Cell, 2005, 123(2): 207-218), herein incorporated by reference in its entirety. Binding of the labeled peptide (1.7 kDa) to the much larger menin (˜67 kDa) is accompanied by a significant change in the rotational correlation time of the fluorophore, resulting in a substantial increase in the fluorescence polarization and fluorescence anisotropy (excitation at 500 nm, emission at 525 nm).

Row | IC50 [nM] | SMILES
1 | 50 to 250 | Cc1nc(N2CCC3(CCN(Cc4ccc5c(cc(C#N)n5C[C@H](C)N5CCN(S(C)(=O)=O)CC5)c4C)C3)C2)c2cc(CC(F)(F)F)sc2n1 (stereo partly shown) [Compound 8]
2 | < 50 | CNS(=O)(=O)C1CCN([C@@H](C)Cn2c(C#N)cc3c(C)c(CN4CCC5(CCN(c6nc(C)nc7sc(CC(F)(F)F)cc67)C5)C4)ccc32)CC1 (stereo partly shown) [Compound 69]
3 | > 1000 | CNc1nc(N2CCC3CCN(Cc4ccccc4)C3C2)c2cc(CC(F)(F)F)sc2n1 (stereo not shown) [Compound 145]
4 | < 50 | Cc1c(CN2CCC3(CCN(c4ncnc5sc(CC(F)(F)F)cc45)C3)C2)ccc2c1cc(C#N)n2C[C@@H]1CNC(=O)OC1 (stereo partly shown) [Compound 44]
5 | > 1000 | CNc1nc(N2CCC3CCN(Cc4ccc5[nH]c(=O)[nH]c5c4)C3C2)c2cc(CC(F)(F)F)sc2n1 (stereo not shown) [Compound 144]
6 | > 1000 | CNc1nc(N2CC3CCN(Cc4ccc5[nH]c(C#N)cc5c4C)C3C2)c2cc(CC(F)(F)F)sc2n1 (stereo not shown) [Compound 129]
7 | > 1000 | CNc1nc(N2CCC3(CCN(Cc4ccc(NS(=O)(=O)NC)cc4)C3)C2)c2cc(CC(F)(F)F)sc2n1 (stereo not shown) [Compound 96]
8 | > 1000 | CNc1nc(N2CCC3CCN(Cc4ccc5[nH]c(C#N)cc5c4C)C3C2)c2cc(CC(F)(F)F)sc2n1 (stereo not shown) [Compound 143]
9 | 50 to 250 | CNc1nc(N2CCC3(CCN(Cc4ccc(NS(C)(=O)=O)cc4)C3)C2)c2cc(CC(F)(F)F)sc2n1 (stereo not shown) [Compound 26]
10 | > 1000 | CNc1nc(N2CC3CCN(Cc4ccccc4)C3C2)c2cc(CC(F)(F)F)sc2n1 (stereo not shown) [Compound 141]
11 | > 1000 | CNc1nc(N2CC3CN(Cc4ccc(C#N)cc4)CC3C2)c2cc(CC(F)(F)F)sc2n1 (stereo not shown) [Compound 146]
12 | < 50 | Cc1nc(N2CCC3(CCN(Cc4ccc5c(cc(C#N)n5C[C@H](C)N5CCN(S(C)(=O)=O)CC5)c4C)C3)C2)c2cc(CC(F)(F)F)sc2n1 (stereo partly shown) [Compound 17]
13 | 250 to 1000 | CCC(=O)NC12CC(Cn3c(C#N)cc4c(C)c(CN5CCC6(CCN(c7nc(C)nc8sc(CC(F)(F)F)cc78)C6)C5)ccc43)(C1)C2 (stereo not shown) [Compound 3, N-(3-((2-cyano-4-methyl-5-((7-(2-methyl-6-(2,2,2-trifluoroethyl)thieno[2,3-d]pyrimidin-4-yl)-2,7-diazaspiro[4.4]nonan-2-yl)methyl)-1H-indol-1-yl)methyl)bicyclo[1.1.1]pentan-1-yl)propionamide]
14 | 250 to 1000 | Cc1nc(N2CCC3(CCN(Cc4ccc5c(c4)[nH]c(=O)n5CCO)C3)C2)c2cc(CC(F)(F)F)sc2n1 (stereo not shown) [Compound 29]
15 | > 1000 | Cc1c(CN2CC3CN(c4ncnc5sc(CC(F)(F)F)cc45)CC3C2)ccc2[nH]c(C#N)cc12 (stereo not shown) [Compound 150]
16 | > 1000 | CNc1nc(N2CC3CCN(Cc4ccccc4)CC3C2)c2cc(CC(F)(F)F)sc2n1 (stereo not shown) [Compound 156]
17 | > 1000 | Cc1nc(N2CC3CN(Cc4ccc5[nH]c(C#N)cc5c4C)CC3C2)c2cc(CC(F)(F)F)sc2n1 (stereo not shown) [Compound 149]
18 | > 1000 | CNc1nc(N2CC3CCN(CCc4ccccc4)CC3C2)c2cc(CC(F)(F)F)sc2n1 (stereo not shown) [Compound 158]
19 | > 1000 | CNc1nc(N2CC3CN(Cc4ccc5c(cc(C#N)n5CCN5CCN(S(C)(=O)=O)CC5)c4C)CC3C2)c2cc(CC(F)(F)F)sc2n1 (stereo not shown) [Compound 151]
20 | > 1000 | CNc1nc(N2CC3CCN(Cc4ccc5[nH]c(=O)[nH]c5c4)C3C2)c2cc(CC(F)(F)F)sc2n1 (stereo not shown) [Compound 140]
21 | < 50 | CNc1nc(N2CCC3(CCN(Cc4ccc5c(cc(C#N)n5C[C@H](C)N5CCN(S(=O)(=O)NC)CC5)c4C)C3)C2)c2cc(CC(F)(F)F)sc2n1 (stereo partly shown) [Compound 5]
22 | < 50 | Cc1c(CN2CCC3(CCN(c4ncnc5sc(CC(F)(F)F)cc45)C3)C2)ccc2c1cc(C#N)n2C[C@H](C)N1CCN(S(C)(=O)=O)CC1 (stereo partly shown) [Compound 43]
23 | > 1000 | Cc1c(CN2CCC3(CCN(c4nc(N)nc5sc(CC(F)(F)F)cc45)C3)C2)ccc2[nH]c(C#N)cc12 (stereo not shown) [Compound 125]
24 | > 1000 | CNc1nc(N2CC3CCN(CCc4ccccc4)C3C2)c2cc(CC(F)(F)F)sc2n1 (stereo not shown) [Compound 142]
25 | < 50 | CNc1nc(N2CCC3(CCN(C[C@H]4CC[C@H](NS(C)(=O)=O)CC4)C3)C2)c2cc(CC(F)(F)F)sc2n1 (stereo partly shown) [Compound 14]
26 | 250 to 1000 | CNc1nc(N2CC3CN(CCc4ccc5[nH]ccc5c4)CC3C2)c2cc(CC(F)(F)F)sc2n1 (stereo not shown) [Compound 139]

Row | IC50 [nM] | SMILES
27 | > 1000 | CNc1nc(N2CC3CN(CCc4ccccc4)CC3C2)c2cc(CC(F)(F)F)sc2n1 (stereo not shown) [Compound 128]
28 | > 1000 | Cc1nc(N2CCC3(CCN(Cc4ccc5[nH]c(C#N)cc5c4C)C3)C2)c2cc(CC(F)(F)F)sc2n1 (stereo not shown) [Compound 41]
29 | > 1000 | CNc1nc(N2CCC3CN(CCc4ccccc4)CC3C2)c2cc(CC(F)(F)F)sc2n1 (stereo not shown) [Compound 154]
30 | < 50 | CNc1nc(N2CCC3(CCN(Cc4ccc5c(cc(C#N)n5C[C@@H]5CNC(=O)CO5)c4C)C3)C2)c2cc(CC(F)(F)F)sc2n1 (stereo partly shown) [Compound 22]
31 | 50 to 250 | CCS(=O)(=O)Nc1ccc(CN2CCC3(CCN(c4nc(NC)nc5sc(CC(F)(F)F)cc45)C3)C2)cc1 (stereo not shown) [Compound 126]
32 | 50 to 250 | CNc1nc(N2CC3CN(Cc4ccc5[nH]c(C#N)cc5c4C)CC3C2)c2cc(CC(F)(F)F)sc2n1 (stereo not shown) [Compound 127]
33 | 50 to 250 | CNS(=O)(=O)N1CCN([C@@H](C)Cn2c(C#N)cc3c(C)c(CN4CCC5(CCN(c6nc(C)nc7sc(CC(F)(F)F)cc67)C5)C4)ccc32)CC1 (stereo partly drawn) [Compound 1, 4-((2S)-1-(2-cyano-4-methyl-5-((7-(2-methyl-6-(2,2,2-trifluoroethyl)thieno[2,3-d]pyrimidin-4-yl)-2,7-diazaspiro[4.4]nonan-2-yl)methyl)-1H-indol-1-yl)propan-2-yl)-N-methylpiperazine-1-sulfonamide]
34 | < 50 | CNS(=O)(=O)C1CCN([C@@H](C)Cn2c(C#N)cc3c(C)c(CN4CCC5(CCN(c6ncnc7sc(CC(F)(F)F)cc67)C5)C4)ccc32)CC1 (stereo partly shown) [Compound 70]
35 | > 1000 | CNc1nc(N2CC3CN(Cc4ccc(NC(C)=O)cc4)CC3C2)c2cc(CC(F)(F)F)sc2n1 (stereo not shown) [Compound 148]
36 | > 1000 | CNc1nc(N2CC3CN(Cc4ccc(NS(C)(=O)=O)cc4)CC3C2)c2cc(CC(F)(F)F)sc2n1 (stereo not shown) [Compound 147]
37 | < 50 | CNc1nc(N2CCC3(CCN(Cc4ccc5c(c4)[nH]c(=O)n5CCO)C3)C2)c2cc(CC(F)(F)F)sc2n1 (stereo not shown) [Compound 30]
38 | > 1000 | CNc1nc(N2CC3CCN(Cc4ccc5[nH]c(C#N)cc5c4C)CC3C2)c2cc(CC(F)(F)F)sc2n1 (stereo not shown) [Compound 157]
39 | 50 to 250 | CCC(=O)NC12CC(Cn3c(C#N)cc4c(C)c(CN5CCC6(CCN(c7nc(NC)nc8sc(CC(F)(F)F)cc78)C6)C5)ccc43)(C1)C2 (stereo not shown) [Compound 11]
40 | 250 to 1000 | CNc1nc(N2CCC3CN(Cc4ccccc4)CC3C2)c2cc(CC(F)(F)F)sc2n1 (stereo not shown) [Compound 152]
41 | 50 to 250 | CNc1nc(N2CCC3(CCN(Cc4ccc5c(cc(C#N)n5CCN5CCN(S(=O)(=O)NC)CC5)c4C)C3)C2)c2cc(CC(F)(F)F)sc2n1 (stereo not shown) [Compound 46]
42 | < 50 | CNc1nc(N2CCC3(CCN(Cc4ccc5c(cc(C#N)n5C[C@H](C)N5CCC(S(C)(=O)=O)CC5)c4C)C3)C2)c2cc(CC(F)(F)F)sc2n1 (stereo partly shown) [Compound 75]
43 | < 50 | Cc1nc(N2CCC3(CCN(Cc4ccc5c(cc(C#N)n5C[C@@H]5CNC(=O)CO5)c4C)C3)C2)c2cc(CC(F)(F)F)sc2n1 (stereo partly shown) [Compound 21]
44 | 250 to 1000 | CNc1nc(N2CCC3(CCN(Cc4ccc5[nH]c(C#N)cc5c4C)C3)C2)c2cc(CC(F)(F)F)sc2n1 (stereo not shown) [Compound 42]
45 | < 50 | CNc1nc(N2CCC3(CCN(Cc4ccc5c(cc(C#N)n5CCN5CCC(S(C)(=O)=O)CC5)c4C)C3)C2)c2cc(CC(F)(F)F)sc2n1 (stereo not shown) [Compound 77]
46 | 250 to 1000 | Cc1nc(N2CCC3(CCN(Cc4ccc(NS(C)(=O)=O)cc4)C3)C2)c2cc(CC(F)(F)F)sc2n1 (stereo not shown) [Compound 25]
47 | 250 to 1000 | CNc1nc(N2CCC3CN(CCc4ccc5[nH]ccc5c4)CC3C2)c2cc(CC(F)(F)F)sc2n1 (stereo not shown) [Compound 155]
48 | < 50 | CNc1nc(N2CCC3(CCN(Cc4ccc5c(cc(C#N)n5C[C@H](C)N5CCC(S(=O)(=O)NC)CC5)c4C)C3)C2)c2cc(CC(F)(F)F)sc2n1 (stereo partly shown) [Compound 68]
49 | 50 to 250 | CNc1nc(N2CCC3(CCN(Cc4ccc5c(cc(C#N)n5C[C@H](C)N5CCN(S(C)(=O)=O)CC5)c4C)C3)C2)c2cc(CC(F)(F)F)sc2n1 (stereo partly shown) [Compound 9]
50 | > 1000 | CNc1nc(N2CC3CCN(CCc4ccc5[nH]ccc5c4)CC3C2)c2cc(CC(F)(F)F)sc2n1 (stereo not shown) [Compound 159]
51 | < 50 | CNS(=O)(=O)N1CCN([C@@H](C)Cn2c(C#N)cc3c(C)c(CN4CCC5(CCN(c6ncnc7sc(CC(F)(F)F)cc67)C5)C4)ccc32)CC1 (stereo partly shown) [Compound 45]
52 | > 1000 | CNc1nc(N2CCC3CN(Cc4ccc5[nH]c(C#N)cc5c4C)CC3C2)c2cc(CC(F)(F)F)sc2n1 (stereo not shown) [Compound 153]

Reference: US11649251B2, “Substituted inhibitors of menin-MLL and methods of use” (Kura Oncology, Inc., priority 2017, dated 2023)
